This is an account of results in PMC9822155, “Synthesis and Antiproliferative Activity against Cancer Cells of Indole-Aryl-Amide Derivatives” (Molecules, 2022).

SMILES strings stand for the structures.

Assay [1] concerns p27, p21 and Bax proteins in HT29 cells. The experiment in a line: Western blot of p27, p21, Bax proteins. In kind it is cell-based, human. The note with it: HT29, 5 μM, 24 h. As for the experimental part:
P27, p21, and Bax proteins expressions were analysed by western blot in control HT29 and treated with 5 μM of 5 for 24 h.
HT29 cells were seeded in 25 cm^2 flasks at a density of 2 × 10^4 cells/cm^2, and after 24 h, they were treated with 5 μM of compound 5. After 24 h, both treated and control cells were washed twice with PBS and lysed in RIPA buffer [50 mMTris/HCl, 150 mMNaCl, SDS (1% v/v), Triton X-100 (1% v/v), 1 mM EDTA, pH 7.6]. Cell lysates were centrifuged at 12,000× g for 20 min, and the protein concentration was determined by using the Bio-Rad protein assay method (Bio-Rad, Hercules, CA, USA). The proteins were detected resolving samples on a 12% gel in Tris-Glycine buffer at 200 V for 50 min. Western Blot was performed in transfer buffer at 100 V for 1 h. The nitrocellulose membrane was incubated with primary antibodies for rabbit anti-p21 (Millipore, Billerica, MA, USA) or rabbit anti-p27 (Millipore, Billerica, MA) or mouse anti-Bax (Millipore, Billerica, MA, USA) or mouse anti-α tubulin (Invitrogen, Walthman, MA, USA) for 1 h. Detection of immunoreactive bands was performed by using a rabbit or mouse HRP-conjugated secondary antibody (GE Healthcare, Milan, Italy), followed by Amersham ECL Plus Western Blotting Detection System (GE Healthcare, Milan, Italy). Densitometry analysis of immunoreactive bands was done by Fluor-S Max MultiImager (Bio-Rad, Hercules, CA, USA). Relative quantification of bands was performed by using an α-tubulin signal as control.
Background: In western blotting, separated proteins are transferred to a membrane and probed.

Assay [2] concerns acetylated histones in HT29 cells. The experiment in a line: Histone acetylation, western blot of nuclear lysates. Conditions: HT29, 5 μM, 6 h. It is filed as cell-based, human. As for the experimental part:
In order to identify acetylated histones, we analyzed the nuclear cell lysates by western blot using a 10% polyacrylammide gel electrophoresis. […] Differences in the density of the bands are thought to reflect differences in protein acetylation levels. Histone acetylation signals were quantified by densitometry and normalized on histone H1 (Figure 5).
HT29 cells were seeded in dish and after 24 h they were treated for 6 h with compound 5 at final concentration of 5 µM. Cells were harvested, washed with 10 mM sodium butyrate in PBS, and nuclei were isolated in according to Amellem and Micheletti. The nuclear pellet was suspended in 0.1 mL ice-cold H2O using a Vortex mixer, and concentrated H2SO4 was added to the suspension to give a final concentration of 0.4 N. After incubation at 4 °C for 1 h, the suspension was centrifuged for 5 min at 14,000× g, and the supernatant was taken and mixed with 1 mL of acetone. After overnight incubation, the coagulate material was collected by microcentrifugation and air-dried. […] Proteins were quantified using a protein assay kit (Bio-Rad, Hercules, CA, USA). Histones were detected resolving samples on a 10% gel in MES buffer at 200 V for 40 min. […] After five washes with PBS-TWEEN 20 0.1%, antibody binding was detected by Amersham ECL Plus Western Blotting Detection System (GE Healthcare, Milan, Italy).

Assay [3] has as its system 3T3 (mouse embryonic fibroblast) cells. The experiment in a line: MTT viability assay, 3T3. It is filed as cell-based. Conditions: 24 h, normal cells. From the text:
(§1) To investigate whether the compounds have an antitumor activity, we performed in vitro viability assays against a panel of cancer cell lines: HT29 (human colorectal adenocarcinoma), HeLa (human cervical carcinoma), IGROV-1 (human ovarian carcinoma), MCF7 (human breast cancer), PC-3 (human prostate adenocarcinoma), and Jurkat J6 (human […]). The I407 (human embryonic intestinal) and 3T3 (mouse embryonic fibroblast) cells were used as controls. The growth inhibitory concentration was determined by incubating the cells with increasing concentrations (0.01–500 μM) of the compounds for 24 h. Data obtained from cell growth assays were elaborated to assess the concentration of cell viability (IC50) and selectivity indices (SI), and the results are shown in Table 2 and Table 3, respectively.
(§2) HT29 human colorectal adenocarcinoma cells, HeLa human cervix adenocarcinoma cells, MCF7 human breast adenocarcinoma cells, PC-3 human prostate adenocarcinoma cells, J6 Jurkat Clone E6-1 acute T cell leukemia, the healthy I407 human intestine cells, and mouse embryonic fibroblast 3T3 fibroblasts as controls cell lines were purchased from American Type Culture Collection (ATCC, Manassas, VA). The human ovarian cancer cell line IGROV1 has been kindly provided by Prof. Colnaghi (Istituto Nazionale Tumori (IRCCS) (Milano, Italy). Cells were cultured in RPMI 1640 medium (Labtek Eurobio, Milan, Italy), supplemented with 10% FCS (Euroclone, Milano, Italy) and 2 mM L-glutamine (Sigma-Aldrich, Milano, Italy), at 37 °C, and a 5% CO2 atmosphere. The compounds were dissolved in DMSO in a 30–40 mM stock solution. In cell treatments, the final DMSO concentration never exceeded 0.1%.
(§3) Cells were seeded at 1.5 × 10^4 cells/well in a 96-well culture plastic plate (Sarsted, Milan, Italy), and after 24 h of growth were exposed to increasing concentrations of each distinct compound (from 0.010 μM to 500 μM) solubilized in RPMI 1640 medium. MTT assay was performed according to the literature. In brief, after 24 h of treatment, the culture medium was replaced with 0.1 mL of 3-(4,5-dimethylthiazolyl-2)-2,5-diphenyltetrazolium bromide (MTT, Sigma-Aldrich, Milano, Italy) dissolved in PBS at the concentration of 0.2 mg/mL, and samples were incubated for 2 h at 37 °C. The absorbance at 570 nm was measured using a multiwell plate reader (Tecan, Männemorf, Switzerland), and data were analyzed by Prism GraphPad software, and expressed as IC50 μM.

Assay [4] deals with PC-3 (human prostate adenocarcinoma) cells. The experiment in a line: MTT viability assay, PC3. It is filed as cell-based.
Excerpt: as §1, §2, §3

One may read the IC50 as the point on the concentration scale where inhibition reaches its midpoint. Lower therefore signals higher potency.

Regarding `Nc1ccc(CN(Cc2ccc(O)cc2)C(=O)Cc2c[nH]c3ccccc23)cc1` [Compound 5], in assay [1], the Bax protein expression entry is “increase”, the p21 protein expression result is “increase” and the p27 protein expression entry was “did not modify the expression”. For the same molecule, in assay [2], the “Histone H2/H3 acetylation” value is listed as “did not modify the state of acetylation of H2/H3” and the “Histone H4 acetylation” value was “induced H4 hyperacetylation”. For the same molecule, the midpoint of inhibition in assay [3], the IC50, lay at 32 ± 0.02 µM. Moreover, the “Selectivity Index IC503T3/ IC50PC3” value in assay [4] (3T3 normal cells as reference) was determined as 82.051. The molecule further yielded a 50% inhibitory concentration (IC50) in assay [4] (Homo sapiens, MTT, 24 h) of 0.39 ± 0.07 µM.
